As a reminder, the IC50 is the point on the concentration scale where inhibition reaches its midpoint. Broadly, the Km is the substrate concentration at which the rate is half of its maximum.

Our source for the IC50 and Km values is PMC10894281, “Kinetic characterization of human mRNA guanine-N7 methyltransferase” (Scientific Reports, 2024).

Type in all cases: biochemical
Assay [1] addresses T1, RNA cap guanine-N7 methyltransferase (hRNMT) (Homo sapiens, UniProt O43148). The assay is described as follows: radiometric scintillation proximity methyltransferase assay (3H-SAM, biotinylated RNA); product inhibition. The arrangement: gene RNMT; RNMT (1–476), full length. On the technique in general: Scintillation proximity formats need no separation of bound from free tracer.

For assay [2], the target named is T1, RNA cap guanine-N7 methyltransferase (hRNMT). The assay is described as follows: radiometric scintillation proximity methyltransferase assay (3H-SAM, biotinylated RNA). The arrangement: gene RNMT; RNMT (1–476), full length.
The target is the same in assay [3]. The assay is described as follows: steady-state kinetics, apparent Km by radiometric scintillation proximity assay. Also on record: gene RNMT; RNMT (1–476), full length; also catalytic domain RNMT (123–476). To be noted: read-out: Km^app.

T1 sequence (O43148 whole entry): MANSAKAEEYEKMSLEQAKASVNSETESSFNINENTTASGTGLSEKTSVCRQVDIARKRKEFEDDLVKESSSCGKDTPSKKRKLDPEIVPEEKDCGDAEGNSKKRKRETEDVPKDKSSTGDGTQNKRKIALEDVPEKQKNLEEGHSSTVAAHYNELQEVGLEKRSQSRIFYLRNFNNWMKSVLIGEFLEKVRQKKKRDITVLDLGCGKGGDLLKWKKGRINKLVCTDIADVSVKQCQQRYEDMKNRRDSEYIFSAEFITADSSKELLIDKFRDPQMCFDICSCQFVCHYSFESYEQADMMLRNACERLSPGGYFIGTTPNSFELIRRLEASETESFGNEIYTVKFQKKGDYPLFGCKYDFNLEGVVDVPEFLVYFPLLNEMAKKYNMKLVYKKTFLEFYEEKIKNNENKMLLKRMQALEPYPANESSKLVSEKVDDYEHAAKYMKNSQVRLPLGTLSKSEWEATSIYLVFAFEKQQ

With `Nc1ncnc2c1ncn2[C@@H]1O[C@H](CSCC[C@H](N)C(=O)O)[C@@H](O)[C@H]1O` [SAH], it took 389 ± 110 nM to reach half-maximal inhibition in assay [1] (IC50).

As for `Cc1ccc(C(=O)Nc2ccc(S(=O)(=O)O)c3cc(S(=O)(=O)O)cc(S(=O)(=O)O)c23)cc1NC(=O)c1cccc(NC(=O)Nc2cccc(C(=O)Nc3cc(C(=O)Nc4ccc(S(=O)(=O)O)c5cc(S(=O)(=O)O)cc(S(=O)(=O)O)c45)ccc3C)c2)c1` [Suramin], in assay [2] (read-out: IC50), the IC50 came out at 5 ± 0.4 nM.

As for `Nc1ncnc2c1ncn2[C@@H]1O[C@H](C[C@@H](N)CC[C@H](N)C(=O)O)[C@@H](O)[C@H]1O` [Sinefungin], inhibition in assay [2] was half-maximal at 3 ± 0.6 nM (IC50).

Regarding `C[S+](CC[C@H](N)C(=O)[O-])C[C@H]1O[C@@H](n2cnc3c(N)ncnc32)[C@H](O)[C@@H]1O` (stereo partly shown) [SAM], in assay [3], the Km worked out at 0.19 ± 0.038 µM.
